Test results reported in patent US8551516B2, “Administration of non-oral androgenic steroids to women” (Actavis, Inc., priority 1999, dated 2013).

Experiments:
[1] = Predicted change in total testosterone, power-law regression of FIG. 1; settings: for concentration at 3.5 day: human, serum, other: transdermal
[2] = Estimated testosterone delivery rate for a given increase in free testosterone, power-law regression of FIG. 2; assay type: in vivo, human
[3] = tested on: sexual function, mood and well-being; assay: Example 1: 12-week coadministration of oral estrogen and transdermal testosterone, sexual function, mood and well-being; assay type: in vivo, human; settings: transdermal patch 300 mcg/day twice weekly plus oral Premarin 0.625 to 2.5 mg daily; after 12 weeks; surgically menopausal women
Source text: The duration of coadministration was 12 weeks.

[4] = Pharmacokinetic study of testosterone transdermal matrix patch in surgically menopausal women: total and free testosterone; assay type: in vivo, human; settings: 300 mcg/day patch; for concentration at 3.5 day: female, human, serum, time-average change from baseline, mean±SEM
Method: One group had received no estrogen replacement therapy (ERT) for at least one month, the second group was receiving transdermal estadiol (E2) at a dosage of 0.1 mg/day, and the third group was receiving oral conjugated equine estrogens (CEE) at a dosage of 1.25 mg/day. […] The resultant hormone data (mean±SEM) for the three groups of surgically menopausal women participating in the clinical study is summarized in Table 2 below.
It should be noted that the normal range for SHBG levels is 36 to 185 nmol/L using the Endocrine Sciences assay.

[5] = Example 1: serum hormone levels on the regimen; settings: Example 1 regimen; for bioavailability: female, human, in vivo
Method: The estrogen consisted of conjugated equine estrogen (Premarin® tablets) at a daily dose of 0.625 to 2.5 mg. […] The duration of coadministration was 12 weeks.

[6] = target: T1, sex hormone binding globulin (SHBG) (Homo sapiens, UniProt P04278); settings: adapted from Dunn et al. 1981; human plasma; cited from earlier work
T1 sequence (P04278 30-402): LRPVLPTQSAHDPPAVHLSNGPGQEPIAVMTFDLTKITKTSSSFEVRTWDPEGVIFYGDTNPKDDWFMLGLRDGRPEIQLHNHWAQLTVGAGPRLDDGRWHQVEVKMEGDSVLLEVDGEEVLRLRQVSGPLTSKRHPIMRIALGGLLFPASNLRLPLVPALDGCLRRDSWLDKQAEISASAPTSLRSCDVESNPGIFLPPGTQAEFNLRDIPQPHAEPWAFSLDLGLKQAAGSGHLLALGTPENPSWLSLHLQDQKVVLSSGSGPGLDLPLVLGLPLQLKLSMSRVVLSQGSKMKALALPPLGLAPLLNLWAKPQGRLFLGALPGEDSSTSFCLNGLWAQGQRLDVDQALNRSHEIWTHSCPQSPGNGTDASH

[7] = Change in FT 1 pg/mL, SHBG 50 nmol/L
[8] = Change in FT 1 pg/mL, SHBG 84 nmol/L
[9] = Change in FT 1 pg/mL, SHBG 100 nmol/L
[10] = Change in FT 1 pg/mL, SHBG 200 nmol/L
[11] = Change in FT 1 pg/mL, SHBG 400 nmol/L
[12] = Change in FT 1 pg/mL, SHBG 600 nmol/L
[13] = Change in FT 1 pg/mL, SHBG 700 nmol/L
[14] = Change in FT 2.5 pg/mL, SHBG 50 nmol/L
[15] = Change in FT 2.5 pg/mL, SHBG 84 nmol/L
[16] = Change in FT 2.5 pg/mL, SHBG 100 nmol/L
[17] = Change in FT 2.5 pg/mL, SHBG 200 nmol/L
[18] = Change in FT 2.5 pg/mL, SHBG 400 nmol/L
[19] = Change in FT 2.5 pg/mL, SHBG 600 nmol/L
[20] = Change in FT 2.5 pg/mL, SHBG 700 nmol/L
[21] = Change in FT 5 pg/mL, SHBG 50 nmol/L
[22] = Change in FT 5 pg/mL, SHBG 84 nmol/L
[23] = Change in FT 5 pg/mL, SHBG 100 nmol/L
[24] = Change in FT 5 pg/mL, SHBG 200 nmol/L
[25] = Change in FT 5 pg/mL, SHBG 400 nmol/L
[26] = Change in FT 5 pg/mL, SHBG 600 nmol/L
[27] = Change in FT 5 pg/mL, SHBG 700 nmol/L
[28] = Change in FT 10 pg/mL, SHBG 50 nmol/L
[29] = Change in FT 10 pg/mL, SHBG 84 nmol/L
[30] = Change in FT 10 pg/mL, SHBG 100 nmol/L
[31] = Change in FT 10 pg/mL, SHBG 200 nmol/L
[32] = Change in FT 15 pg/mL, SHBG 50 nmol/L
[33] = Change in FT 15 pg/mL, SHBG 84 nmol/L
[34] = Change in FT 15 pg/mL, SHBG 100 nmol/L
[35] = Change in FT 15 pg/mL, SHBG 200 nmol/L
[36] = Change in FT 15 pg/mL, SHBG 400 nmol/L
[37] = Change in FT 15 pg/mL, SHBG 600 nmol/L
[38] = Change in FT 15 pg/mL, SHBG 700 nmol/L

C[C@]12CC[C@H]3[C@@H](CCC4=CC(=O)CC[C@@]43C)[C@@H]1CC[C@@H]2O [testosterone, (17)-17-Hydroxyandrost-4-en-3-one]
Predicted Changes in Total Testosterone [1, 7]: 9 ng/dL
Predicted Changes in Total Testosterone [1, 8]: 12 ng/dL
Predicted Changes in Total Testosterone [1, 9]: 14 ng/dL
Predicted Changes in Total Testosterone [1, 10]: 23 ng/dL
Predicted Changes in Total Testosterone [1, 11]: 37 ng/dL
Predicted Changes in Total Testosterone [1, 12]: 49 ng/dL
Predicted Changes in Total Testosterone [1, 13]: 55 ng/dL
Predicted Changes in Total Testosterone [1, 14]: 21 ng/dL
Predicted Changes in Total Testosterone [1, 15]: 31 ng/dL
Predicted Changes in Total Testosterone [1, 16]: 35 ng/dL
Predicted Changes in Total Testosterone [1, 17]: 57 ng/dL
Predicted Changes in Total Testosterone [1, 18]: 92 ng/dL
Predicted Changes in Total Testosterone [1, 19]: 123 ng/dL
Predicted Changes in Total Testosterone [1, 20]: 137 ng/dL
Predicted Changes in Total Testosterone [1, 21]: 43 ng/dL
Predicted Changes in Total Testosterone [1, 22]: 61 ng/dL
Predicted Changes in Total Testosterone [1, 23]: 69 ng/dL
Predicted Changes in Total Testosterone [1, 24]: 113 ng/dL
Predicted Changes in Total Testosterone [1, 25]: 184 ng/dL
Predicted Changes in Total Testosterone [1, 26]: 245 ng/dL
Predicted Changes in Total Testosterone [1, 27]: 273 ng/dL
Predicted Changes in Total Testosterone [1, 28]: 85 ng/dL
Predicted Changes in Total Testosterone [1, 29]: 123 ng/dL
Predicted Changes in Total Testosterone [1, 30]: 139 ng/dL
Predicted Changes in Total Testosterone [1, 31]: 226 ng/dL
Predicted Changes in Total Testosterone [1, 32]: 128 ng/dL
Predicted Changes in Total Testosterone [1, 33]: 184 ng/dL
Predicted Changes in Total Testosterone [1, 34]: 208 ng/dL
Predicted Changes in Total Testosterone [1, 35]: 339 ng/dL
Predicted Changes in Total Testosterone [1, 36]: 553 ng/dL
Predicted Changes in Total Testosterone [1, 37]: 736 ng/dL
Predicted Changes in Total Testosterone [1, 38]: 820 ng/dL
concentration at 3.5 day ([1]; 1313 mcg/day): 3.68 ng/mL
concentration at 3.5 day ([1]; 1553 mcg/day): 4.9 ng/mL
concentration at 3.5 day ([1]; 1656 mcg/day): 5.47 ng/mL
concentration at 3.5 day ([1]; 2484 mcg/day): 8.2 ng/mL
Estimated Delivery Rate [2, 7]: 55 µg/day
Estimated Delivery Rate [2, 8]: 69 µg/day
Estimated Delivery Rate [2, 9]: 74 µg/day
Estimated Delivery Rate [2, 10]: 98 µg/day
Estimated Delivery Rate [2, 11]: 131 µg/day
Estimated Delivery Rate [2, 12]: 155 µg/day
Estimated Delivery Rate [2, 13]: 166 µg/day
Estimated Delivery Rate [2, 14]: 139 µg/day
Estimated Delivery Rate [2, 15]: 172 µg/day
Estimated Delivery Rate [2, 16]: 185 µg/day
Estimated Delivery Rate [2, 17]: 246 µg/day
Estimated Delivery Rate [2, 18]: 328 µg/day
Estimated Delivery Rate [2, 19]: 388 µg/day
Estimated Delivery Rate [2, 20]: 414 µg/day
Estimated Delivery Rate [2, 21]: 277 µg/day
Estimated Delivery Rate [2, 22]: 344 µg/day
Estimated Delivery Rate [2, 23]: 369 µg/day
Estimated Delivery Rate [2, 24]: 492 µg/day
Estimated Delivery Rate [2, 25]: 656 µg/day
Estimated Delivery Rate [2, 26]: 111 µg/day
Estimated Delivery Rate [2, 27]: 828 µg/day
Estimated Delivery Rate [2, 28]: 554 µg/day
Estimated Delivery Rate [2, 29]: 687 µg/day
Estimated Delivery Rate [2, 30]: 739 µg/day
Estimated Delivery Rate [2, 31]: 985 µg/day
Estimated Delivery Rate ([2]; Change in FT 10 pg/mL, SHBG 400 nmol/L): 1313 µg/day
Estimated Delivery Rate ([2]; Change in FT 10 pg/mL, SHBG 600 nmol/L): 1553 µg/day
Estimated Delivery Rate ([2]; Change in FT 10 pg/mL, SHBG 700 nmol/L): 1656 µg/day
Estimated Delivery Rate [2, 32]: 831 µg/day
Estimated Delivery Rate [2, 33]: 1031 µg/day
Estimated Delivery Rate [2, 34]: 1108 µg/day
Estimated Delivery Rate [2, 35]: 1477 µg/day
Estimated Delivery Rate [2, 36]: 1969 µg/day
Estimated Delivery Rate [2, 37]: 2330 µg/day
Estimated Delivery Rate [2, 38]: 2484 µg/day
sexual function, mood and well-being in comparison to conjugated equine estrogen alone [3]: improved sexual function, mood and well-being
mean increase in free serum testosterone lower in oral estrogen group than other two groups [4]: approximately 40%
mean increase in total serum testosterone greater in oral estrogen group than other two groups ([4]; time-averaged change from baseline): approximately 30%
concentration at 3.5 day ([4]; other: transdermal patch, with Transdermal E2 0.1 mg/day, n=12, read-out: Changes in Free T): 0.0042 ± 0.0007 ng/mL
concentration at 3.5 day ([4]; other: transdermal patch, with Transdermal E2 0.1 mg/day, n=12, read-out: Changes in Total T): 0.536 ± 0.072 ng/mL
concentration at 3.5 day ([4]; other: transdermal patch, 300 mcg/day, No ERT, n=19, 3.5 day application, read-out: Changes in Total T): 0.572 ± 0.044 ng/mL
concentration at 3.5 day ([4]; other: transdermal patch, 300 mcg/day, No ERT, n=19, read-out: Changes in Free T): 0.0046 ± 0.0004 ng/mL
concentration at 3.5 day ([4]; po, with Oral CEE 1.25 mg/day, n=13, read-out: Changes in Free T): 0.00256 ± 0.0003 ng/mL
concentration at 3.5 day ([4]; po, with Oral CEE 1.25 mg/day, n=13, read-out: Changes in Total T): 0.708 ± 0.096 ng/mL
women with free testosterone level below 6.8 pg/mL [5]: 78%
women with free testosterone level below 15 pg/mL [5]: 97%
women with total testosterone levels in excess of 80 ng/dL [5]: 73%
bioavailability ([5]; women with bioavailable testosterone level below 12.7 ng/dL): 68%
bioavailability ([5]; women with bioavailable testosterone level below 35 ng/dL): 97%
K (binding affinity constant for SHBG) [6]: 1600 10^6 Liter/mole
